One data set deals with Haemophilus influenzae. Briefly: Antibacterial activity against Haemophilus influenzae ATCC 49247 by broth microdilution method. The format is functional.
The test system of another data set is THP-1. Briefly: Cytotoxicity against human THP1 cells at 100 uM after 24 hrs by MTS assay. The format is cell-based. The following applies: thp-1, 24 h. In general terms: Tetrazolium dyes change colour on reduction, which living cells bring about.
A further data set deals with Staphylococcus aureus. Briefly: Antibacterial activity against Staphylococcus aureus ATCC 13709 by broth microdilution method. The format is functional.
In the next data set the test system is Splenocyte. In words: Inhibition of LPS-induced IL-6 production in mouse splenocytes at 50 uM after 2 hrs preincubation by ELISA. It is filed as functional. (In an ELISA, binding on a coated surface is turned into a signal by an enzyme label.)
In the next data set the test system is Moraxella catarrhalis. In words: Antibacterial activity against Moraxella catarrhalis ATCC 23246 by broth microdilution method. The format is functional. (In general: Dilution methods test growth across graded concentrations, often in twofold steps.)
A further data set deals with Streptococcus pneumoniae. In words: Antibacterial activity against Streptococcus pneumoniae ATCC 49619 by broth microdilution method. It is filed as functional.
Another data set deals with Streptococcus pyogenes. In words: Antibacterial activity against Streptococcus pyogenes ATCC 700294 by broth microdilution method. The format is functional. The following applies: M1 GAS.
The test system of another data set is Mus musculus. Briefly: Antiinflammatory activity against LPS-induced lung neutrophilia in BALB/cJ mouse model assessed as reduction in neutrophil numbers in bronchoalveolar lavage fluid at 100 mg/kg, ip treated 2 hrs before LPS challenge measured after 24 hrs by hematological analyzer. The format is functional, organism-based. Also noted: dose 100 mg/kg.

Values after ≈ are worked out from the molar mass of the structure shown. Active and inactive are the calls of the source. No cut-off for these calls is given here.

As a reminder, the inhibition is the drop in the measured response relative to a control, in per cent.

Take `CO[C@H]1C[C@H](O[C@H]2[C@H](C)[C@@H](O[C@@H]3O[C@H](C)C[C@H](N(C)C)[C@H]3O)[C@@H](C)C[C@@H](C)[C@@H](O)[C@H](C)[C@@H](O)[C@@H](C)[C@@H](C)OC(=O)[C@@H]2C)O[C@@H](C)[C@@H]1O`: the MIC in the data set with Haemophilus influenzae, against Staphylococcus aureus, in the data set with Moraxella catarrhalis, in the data set with Streptococcus pneumoniae and against Streptococcus pyogenes was over 64 µg/mL each time. The Activity result in the data set on THP-1 was “Non-toxic”. Also, in the data set with Splenocyte, the inhibition at 50 µM came to 2%.

In the case of `CO[C@H]1C[C@H](O[C@H]2[C@H](C)[C@@H](O[C@@H]3O[C@H](C)C[C@H](N(C)C)[C@H]3O)[C@@H](C)C[C@H](C)[C@H](O)[C@H](C)[C@@H](O)[C@@H](C)[C@@H](C)OC(=O)[C@@H]2C)O[C@@H](C)[C@@H]1O`, the MIC in the data set on Haemophilus influenzae, against Staphylococcus aureus, in the data set with Moraxella catarrhalis, in the data set on Streptococcus pneumoniae and against Streptococcus pyogenes was over 64 µg/mL in each case. Moreover, the Activity entry in the data set with THP-1 is listed as “Non-toxic”. For the same molecule, the inhibition at 50 µM in the data set on Splenocyte turned out to be 12%.

Consider `C=C1C[C@H](C)[C@H](O[C@@H]2O[C@H](C)C[C@H](N(C)C)[C@H]2O)[C@@H](C)[C@H](O[C@H]2C[C@H](OC)[C@@H](O)[C@H](C)O2)[C@@H](C)C(=O)O[C@H](C)[C@H](C)[C@H](O)[C@@H](C)[C@H]1O`, for which the MIC with Haemophilus influenzae, in the data set on Staphylococcus aureus, against Moraxella catarrhalis, with Streptococcus pneumoniae and in the data set on Streptococcus pyogenes was over 64 µg/mL each time. Besides, the Activity result in the data set with THP-1 is listed as “Non-toxic”. In addition, the inhibition at 50 µM in the data set with Splenocyte amounted to 13%.

On to `CO[C@H]1C[C@H](O[C@H]2[C@H](C)[C@@H](O[C@@H]3O[C@H](C)C[C@H](N(C)C)[C@H]3O)[C@@H](C)C[C@@H](C)[C@H](O)[C@H](C)[C@@H](O)[C@@H](C)[C@@H](C)OC(=O)[C@@H]2C)O[C@@H](C)[C@@H]1O`, for which the MIC is over 64 µg/mL with Haemophilus influenzae; over 64 µg/mL against Staphylococcus aureus; over 64 µg/mL against Moraxella catarrhalis; 4 µg/mL (≈ 5.92 µM) in the data set on Streptococcus pneumoniae; over 64 µg/mL in the data set on Streptococcus pyogenes. For the same molecule, the Activity entry in the data set with THP-1 was “Non-toxic”. The result with Mus musculus was Active. Also, testing at 50 µM with Splenocyte gave an inhibition of 61%.

For the molecule `CO[C@H]1C[C@H](O[C@H]2[C@H](C)[C@@H](O[C@@H]3O[C@H](C)C[C@H](N(C)C)[C@H]3O)[C@@H](C)C[C@H](C)[C@@H](O)[C@H](C)[C@@H](O)[C@@H](C)[C@@H](C)OC(=O)[C@@H]2C)O[C@@H](C)[C@@H]1O`, the MIC in the data set with Haemophilus influenzae, against Staphylococcus aureus, with Moraxella catarrhalis, against Streptococcus pneumoniae and against Streptococcus pyogenes was over 64 µg/mL throughout. Also, the Activity result with THP-1 was “Non-toxic”. The outcome in the data set with Mus musculus was Active. This molecule also returned an inhibition at 50 µM in the data set on Splenocyte of 2%.

On to `CO[C@H]1C[C@H](O[C@H]2[C@H](C)[C@@H](O[C@@H]3O[C@H](C)C[C@H](N(C)C)[C@H]3O)[C@@H](C)C[C@H](C)C(=O)[C@H](C)[C@@H](O)[C@@H](C)[C@@H](C)OC(=O)[C@@H]2C)O[C@@H](C)[C@@H]1O`, for which the MIC against Haemophilus influenzae, in the data set on Staphylococcus aureus, against Moraxella catarrhalis, against Streptococcus pneumoniae and in the data set with Streptococcus pyogenes was over 64 µg/mL in each case. Moreover, the Activity entry in the data set on THP-1 is “Non-toxic”. Further, testing at 50 µM with Splenocyte gave an inhibition of 42%.

With `C=C1C[C@H](C)[C@H](O[C@@H]2O[C@H](C)C[C@H](N(C)C)[C@H]2O)[C@@H](C)[C@H](O[C@H]2C[C@H](OC)[C@@H](O)[C@H](C)O2)[C@@H](C)C(=O)O[C@H](C)[C@H](C)[C@H](O)[C@@H](C)[C@@H]1O`, the MIC with Haemophilus influenzae, in the data set on Staphylococcus aureus, in the data set on Moraxella catarrhalis, in the data set on Streptococcus pneumoniae and against Streptococcus pyogenes was over 64 µg/mL each time. Also, in the data set with THP-1, the Activity result is given as “Non-toxic”. Besides, in the data set on Splenocyte, the inhibition at 50 µM was 13%.

Regarding `CO[C@H]1C[C@H](O[C@H]2[C@H](C)[C@@H](O[C@@H]3O[C@H](C)C[C@H](N(C)C)[C@H]3O)[C@@H](C)C[C@@H](C)C(=O)[C@H](C)[C@@H](O)[C@@H](C)[C@@H](C)OC(=O)[C@@H]2C)O[C@@H](C)[C@@H]1O`, the MIC in the data set with Haemophilus influenzae was over 64 µg/mL; against Staphylococcus aureus it was 4 µg/mL (≈ 5.94 µM); against Moraxella catarrhalis, 2 µg/mL (≈ 2.97 µM); in the data set on Streptococcus pneumoniae, 0.25 µg/mL (≈ 0.371 µM); in the data set with Streptococcus pyogenes it was 0.5 µg/mL (≈ 0.742 µM). For the same molecule, the Activity entry in the data set with THP-1 is “Non-toxic”. Further, in the data set with Splenocyte, the inhibition at 50 µM stood at 69%.

These data come from ChEMBL document CHEMBL1955768, “Impact of stereochemistry on the biological activity of novel oleandomycin derivatives” (Bioorg Med Chem, 2012).
